Test results published in article PMC2974002 (Journal of medicinal chemistry, 2010).
Where two headings read alike, the source gives them in different places.

Experiments:
[1] = Stability in pH 7.0 phosphate buffer; type: physicochemical; conditions: 72 h
[2] = Thiol cleavage of prodrugs with BnSH; type: physicochemical
[3] = Stability to BnSH without soluble base; type: physicochemical; conditions: for stability to treatment with BnSH: BnSH in THF (72 h, 23 °C) or MeOH (72 h, 23 °C)
[4] = system: L1210 cells; assay: Cell growth inhibition in a cytotoxic assay with L1210 cells; type: cell-based, murine; conditions: for decrease in cytotoxic potency relative to 5: ratio to 5
[5] = system: L1210 murine leukemia cells; type: in vivo, DBA/2J mice; conditions: i.p. on days 1, 5 and 9; for antitumor activity (in words): compared with free drug 11
[6] = system: DNA; conditions: cell free systems; cited from earlier work
[7] = clean release of 11; cited from earlier work

Compound | cleavage in pH 7.0 phosphate buffer [1] | half-life [2] [h] | stability to treatment with BnSH [3] | decrease in cytotoxic potency relative to 5 [4] | cleavage by BnSH ([3]; under all conditions examined) | IC50 [4] [pM] | potency of natural (1S)-enantiomer relative to unnatural (1R)-enantiomer [4] | dose of maximal effect ([5]; dose range 10–100 μg/kg) [mg/kg] | antitumor activity (in words) [5] | DNA alkylation [6] | half-life ([2]; BnSH (100 equiv) and NaHCO3 (100 equiv) in MeOH) [h] | half-life in human plasma (t1/2) [7] [h]
CN(Oc1cc2c(c3ccccc13)C(CCl)CN2C(=O)c1cc2cc(NC(=O)c3cc4ccccc4[nH]3)ccc2[nH]1)C(=O)OC(C)(C)C (centres unmarked) [compound 8, tert-Butyl(3-(5-(1H-indole-2-carboxamido)-1H-indole-2-carbonyl)-1-(chloromethyl)-2,3-dihydro-1H-benzo[e]indol-5-yl)oxy(methyl)carbamate] | no significant cleavage | 48 | stable | nine-fold |  |  |  |  |  |  |  | 
CC(C)(C)C(=O)NOc1cc2c(c3ccccc13)C(CCl)CN2C(=O)c1cc2cc(NC(=O)c3cc4ccccc4[nH]3)ccc2[nH]1 (centres unmarked) [compound 6, N-(2-(1-(Chloromethyl)-5-(pivalamidooxy)-2,3-dihydro-1H-benzo[e]indole-3-carbonyl)-1H-indol-5-yl)-1H-indole-2-carboxamide] | completely cleaved | < 0.5 |  |  | rapidly cleaved |  |  |  |  |  |  | 
seco-CBI-indole2 [compound 11, reference compound] |  |  |  |  |  | 30 | ca. 30 fold | 0.06 |  |  |  | 
NC(=O)NOc1cc2c(c3ccccc13)C(CCl)CN2C(=O)c1cc2cc(NC(=O)c3cc4ccccc4[nH]3)ccc2[nH]1 (centres unmarked) [compound 3, N-(2-(1-(Chloromethyl)-5-(ureidooxy)-2,3-dihydro-1H-benzo[e]indole-3-carbonyl)-1H-indol-5-yl)-1H-indole-2-carboxamide] | no significant cleavage | 35 | stable | ten times |  |  |  |  | active, albeit only at higher doses |  |  | 
COC(=O)NOc1cc2c(c3ccccc13)C(CCl)CN2C(=O)c1cc2cc(NC(=O)c3cc4ccccc4[nH]3)ccc2[nH]1 (centres unmarked) [compound 4, Methyl(3-(5-(1H-indole-2-carboxamido)-1H-indole-2-carbonyl)-1-(chloromethyl)-2,3-dihydro-1H-benzo[e]indol-5-yl)oxycarbamate] | no significant cleavage | 10 | stable | five times |  |  |  |  | active, albeit only at higher doses |  |  | 
CC(C)(C)OC(=O)NOc1cc2c(c3ccccc13)C(CCl)CN2C(=O)c1cc2cc(NC(=O)c3cc4ccccc4[nH]3)ccc2[nH]1 (centres unmarked) [compound 5, tert-Butyl(3-(5-(1H-indole-2-carboxamido)-1H-indole-2-carbonyl)-1-(chloromethyl)-2,3-dihydro-1H-benzo[e]indol-5-yl)oxycarbamate] | no significant cleavage |  | stable |  |  |  |  |  | matched or exceeded the efficacy of the free drug 11 at each dose | incapable of alkylating DNA | 6 | 3 to 6
